Experimental data reported in ChEMBL document CHEMBL4651402, “Screening of ~5500 FDA-approved drugs and clinical candidates for anti-SARS-CoV-2 activity” (2021).

System: SARS-CoV-2
Test: microbe, parasite or virus in culture
Conditions: Severe acute respiratory syndrome coronavirus 2, Vero C1008, 48 h

Structure (SMILES)	IC50 [µM]	IC50 (read-out: pIC50 (converted)) [µM]
NC(=O)Cc1cccc(C(=O)c2ccccc2)c1N	> 20	> 20
CN[C@@H](C)[C@H](O)c1ccc(O)cc1	> 20	> 20
CCOC(=O)[C@H](CCc1ccccc1)N[C@@H](C)C(=O)N1[C@H](C(=O)O)C[C@@H]2CCC[C@@H]21	> 20	> 20
NCc1c[nH]c(=S)n1[C@H]1CCc2c(F)cc(F)cc2C1	> 20	> 20
Cc1cc(/C=C/c2ccc3cc(N(C)C)ccc3[n+]2C)c(C)n1-c1ccccc1	> 20	> 20
CC1=CC(=O)C2=C(C)CCC3C(C)C(=O)OC3C12 (centres undefined)	> 20	> 20
Cc1nc(O)c2cc(CN(C)c3ccc(C(=O)NC(CCC(=O)O)C(=O)O)s3)ccc2n1 (centres undefined)	> 20	> 20
COc1cc(=O)n(C)c2c(OCC(O)C(C)(C)O)cccc12 (centres undefined)	> 20	> 20
C[N+]1(C)CCC[C@H]1C(=O)[O-]	> 20	> 20
C=CC1CN2CCC1CC2C(O)c1ccnc2ccccc12 (centres undefined)	> 20	> 20
CCCN(CCC)CCc1ccc(O)c(O)c1	> 20	> 20
CN1C[C@H]2C[C@@H]1CN2c1cc2c(cc1F)c(=O)c(C(=O)O)cn2C1CC1	> 20	> 20
OCc1cc2c(cn1)[nH]c1ccccc12	> 20	> 20
CS(=N)(=O)CCC(N)C(=O)O (centres undefined)	> 20	> 20
C[N+]1(C)C2CCC1CC(OC(=O)C(O)c1ccccc1)C2 (centres undefined)	> 20	> 20
NC(Cc1c[nH]c2ccc(O)cc12)C(=O)O (centres undefined)	> 20	> 20
COC(=O)[C@H](Cc1ccccc1)NC(=O)[C@@H](N)CC(=O)O	> 20	> 20
C[C@H](N[C@@H](CCc1ccccc1)C(=O)O)C(=O)N1Cc2ccccc2C[C@H]1C(=O)O	> 20	> 20
CC[C@@]1(c2ccccc2)NC(=O)N(C)C1=O	> 20	> 20
Nc1nccc2c1ncn2C1OC(CO)C(O)C1O (centres undefined)	> 20	> 20
CCOC(=O)Cc1ccc(-c2ccccc2)cc1	> 20	> 20
CCOC(=O)Nc1ccc(SC[C@H]2CO[C@](Cn3ccnc3)(c3ccc(OC)cc3)O2)cc1	> 20	> 20
Cc1cc(OCCCS(C)(=O)=O)cc(C)c1-c1cccc(COc2ccc3c(c2)OC[C@@H]3CC(=O)O)c1	> 20	> 20

Structure (SMILES)	IC50 [µM]	IC50 (read-out: pIC50 (converted)) [µM]
C[C@H](CCC(=O)O)[C@H]1CC[C@H]2[C@@H]3[C@H](O)CC4C[C@H](O)CC[C@]4(C)[C@H]3CC[C@]12C (some centres undefined)	> 20	> 20
COc1ccc(CCN)cc1OC	> 20	> 20
CNCCc1cnc[nH]1	> 20	> 20
CC(=O)O[C@]1(C(C)=O)CCC2C3C[C@H](C)C4=CC(=O)CCC4(C)C3CCC21C (some centres undefined)	> 20	> 20
O=C(O)C1CCCN(CCC=C2c3ccccc3CCc3ccccc32)C1 (centres undefined)	> 20	> 20
CC(=O)OCC1OC(n2ccc(=O)[nH]c2=O)C(OC(C)=O)C1OC(C)=O (centres undefined)	> 20	> 20
O=C(O)c1ccc2[nH]nnc2c1	> 20	> 20
OCC(O)COc1ccc(Cl)cc1 (centres undefined)	> 20	> 20
OCC1CCC(n2cnc3c(O)ncnc32)O1 (centres undefined)	> 20	> 20
CCCC[C@@]1(CC)CS(=O)(=O)c2cc(CNC(CC(=O)O)CC(=O)O)c(OC)cc2[C@H](c2ccccc2)N1	> 20	> 20
COC(=O)Nc1c(N)nc(-c2nn(Cc3ccccc3F)c3ncccc23)nc1N	> 20	> 20
Nc1ncc([N+](=O)[O-])s1	> 20	> 20
CSC[C@H](NC(=O)COc1cccc2cnccc12)C(=O)N[C@@H](Cc1ccccc1)[C@H](O)C(=O)N1CSC[C@H]1C(=O)NC(C)(C)C	> 20	> 20
C=C(C)C1Cc2c(ccc3c2OC2COc4cc(OC)c(OC)cc4C2C3=O)O1 (centres undefined)	> 20	> 20
CC(=O)O[C@H]1CC[C@@]2(C)C(=CC(=O)[C@@H]3[C@@H]2CC[C@]2(C)C(=O)CC[C@@H]32)C1	> 20	> 20
NC(=O)c1[nH]cnc1O	> 20	> 20
CC(C)c1ccc(C(=O)NCCOc2ccc(C(=O)O)cc2)cc1	> 20	> 20
CC(C=NNC(=N)N)=NNC(=N)N	> 20	> 20
CC(C)CCCC(C)C1CCC2C3CC(O)[C@@]4(O)CC(O)CCC4(C)C3CCC12C (some centres undefined)	> 20	> 20
CC(C)OC(=O)[C@H](C)N[P@@](=S)(OC[C@H]1O[C@@H](n2ccc(=O)[nH]c2=O)[C@](C)(O)[C@@H]1O)Oc1ccccc1	> 20	> 20
CC[C@H]1/C=C\C=C/C[C@@H](C)[C@H](O)[C@@](C)(O)C(=O)[C@@H](C)[C@H](O)[C@@H](C)C(=O)[C@@H](C)[C@H](O)[C@@H](C)/C=C\C(=O)O[C@@H]2[C@@H](C)[C@H](CC1)O[C@]1(CC[C@H](C)[C@H](C[C@@H](C)O)O1)[C@H]2C	> 20	> 20
CC(C)N(CCC(C(N)=O)(c1ccccc1)c1ccccc1)C(C)C	> 20	> 20
C[C@@H]1CCC[C@@H](C)N1CCCC(O)(c1ccccc1)c1ccccn1 (some centres undefined)	> 20	> 20

Structure (SMILES)	IC50 [µM]	IC50 (read-out: pIC50 (converted)) [µM]
C[C@H](Cc1ccccc1)N(C)Cc1ccco1	> 20	> 20
[2H]C([2H])(OC(=O)C(C)C)[C@@]1(CCl)O[C@@H](n2ccc(N)nc2=O)[C@H](F)[C@@H]1OC(=O)C(C)C	> 20	> 20
CC=C(C)C(=O)O[C@@H]1c2c(ccc3ccc(=O)oc23)OC(C)(C)[C@@H]1OC(C)=O	> 20	> 20
O=c1cc2c(nn1-c1ccc(Cl)cc1)-c1ccccc1[S+]([O-])CC2 (centres undefined)	> 20	> 20
CC1O[C@@H](OC2CC[C@@]3(C)C(CCC4C3CC(O)[C@]3(C)[C@@H](C5=CC(=O)OC5)CCC43O)C2)CC(O)[C@@H]1O[C@H]1CC(O)[C@H](O[C@H]2CC(O)[C@H](O[C@@H]3OC(CO)[C@@H](O)C(O)C3O)C(C)O2)C(C)O1 (some centres undefined)	> 20	> 20
Cc1cc(CC(=O)O)n(C)c1[14C](=O)c1ccc(Cl)cc1	> 20	> 20
CC(=O)OC1CCC2(C)C3CCC4(C)C(CC5OC6(CCC(C)CO6)C(C)C54)C3CC[C@H]2C1 (some centres undefined)	> 20	> 20
C=C1CC23CCC4C(C)(C(=O)O)CCCC4(C)C2CCC1(OC1OC(CO)C(O)C(O)C1OC1OC(CO)C(O)C(O)C1O)C3 (centres undefined)	> 20	> 20
O=C(O)CC/C=C/CCC1C(OCc2ccc(-c3ccccc3)cc2)CC(O)C1N1CCCCC1 (centres undefined)	> 20	> 20
C[C@@]12CCC3[C@@](CC[C@@H]4[C@](C)(C(=O)O)CCC[C@@]34C)(CC1=O)C2 (some centres undefined)	> 20	> 20
CCN(C/C=C\c1ccc(C2CCCCC2)c(Cl)c1)C1CCCCC1	> 20	> 20
COc1ccccc1OC(=O)C(C)c1ccc(CC(C)C)cc1 (centres undefined)	> 20	> 20
O=C(O)[C@H]1C[C@H]([C@H]2CCCCN2)CN2CCCC[C@H]12	> 20	> 20
O=C1O[C@@H]([C@@H](O)CO)C(O)=C1O	> 20	> 20
COc1ccc(C2CNC(=O)NC2)cc1O[C@@H]1C[C@H]2CC[C@@H]1C2	> 20	> 20
C=C1CC[C@H](O)C/C1=C/C=C1\CCCC2(C)C1CCC2C(C)/C=C/C(C)C(C)C (some centres undefined)	> 20	> 20
Nc1nc(OC(c2ccc(-c3cccc(F)c3)cc2)C(F)(F)F)cc(-c2ccc(C[C@H](N)C(=O)O)cc2)n1 (some centres undefined)	> 20	> 20
C#C[C@]1(CO)O[C@@H](n2cnc3c(N)nc(F)nc32)C[C@@H]1O	> 20	> 20
Nc1ccccc1S(N)(=O)=O	> 20	> 20
COc1ccc(CCN(C)CCCC(C#N)(c2ccc(OC)c(OC)c2)C(C)C)cc1OC (centres undefined)	> 20	> 20
O=C[C@@H]1CCCN1C(=O)CCC(=O)NCc1ccc(Cl)cc1	> 20	> 20
